In US8257755B2, “Metabolic syndrome-improving agent and medicine, supplement, functional food and food additive containing the same” (ARKRAY, Inc., priority 2005, dated 2012):

Experiments:
[1] = molecular target: T1, human PPARγ ligand-binding site (Homo sapiens, UniProt P37231); test: PPARγ ligand activity, GAL4-hPPARγ luciferase reporter assay in CV-1 cells; assay type: cell-based; details: for PPARγ ligand activity: relative to non-treatment control (DMSO) = 100, average ± standard error, n=4
T1 construct: expressed in transfected cells; host or cells: CV-1 cells (African green monkey kidney)
T1 sequence (P37231 204-505): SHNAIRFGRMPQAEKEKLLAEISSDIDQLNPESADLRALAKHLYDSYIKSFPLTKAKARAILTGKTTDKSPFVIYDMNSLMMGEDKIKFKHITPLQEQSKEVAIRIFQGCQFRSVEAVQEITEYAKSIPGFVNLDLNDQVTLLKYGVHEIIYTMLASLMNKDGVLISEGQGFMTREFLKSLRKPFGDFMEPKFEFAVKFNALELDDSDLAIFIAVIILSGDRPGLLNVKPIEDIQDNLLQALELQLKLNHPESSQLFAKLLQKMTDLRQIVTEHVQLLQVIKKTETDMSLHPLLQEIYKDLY
Method: CV-1 cells (cultured cells derived from kidneys of male African green monkeys) were implanted on 24-well culture plates so as to be […]/well and cultured at 37° C. in 5% CO2 for 24 hours. As a medium, DMEM (Dulbecco's Modified Eagle Medium; manufactured by GIBCO) containing 10% FBS (fetal bovine serum) and a 10 mg/mL penicillin streptomycin solution was used. Using the Lipofectamine system (trade name; manufactured by Invitrogen Corporation), pM-hPPARγ and p4×UASg-tk-luc were transfected. The above-noted pM-hPPARγ was a chimeric protein-expression plasmid binding GAL4 gene (amino acid sequence 1-147) and human PPARγ ligand-binding site gene (amino acid sequence 204-505), whereas the above-noted p4×UASg-tk-luc was a reporter plasmid containing four copies of a responsive element (UAS) of GAL 4 upstream of a luciferase gene. About 24 hours after the transfection, samples of bergamottin at respective concentrations (0.1, 1.0, 10, 50 and 100 μM) were added to the above-described media, followed by 24 hour incubation. The above-noted samples were prepared by dissolving bergamottin in dimethyl sulfoxide (DMSO). Instead of the above-noted sample, DMSO was used for non-treated control media. After the incubation, measurement was made using a Dual-Luciferase Reporter Gene Assay system (trade name; manufactured by Promega Corporation).
Similarly to the measurement group, as a control group, pM (a plasmid from which PPARγ ligand-binding site gene was removed) was used for measurement instead of pM-hPPARγ. For each sample, the ratio between average luminescence intensities of the measurement group and the control group (n=4) (measurement group/control group) was calculated, and an activity relative to the non-treatment control was determined as the PPARγ ligand activity of the sample.

[2] = test system: HepG2 cells (human hepatic cells); test: Counting of the number of living cells (CellTiter 96 Aqueous One) in HepG2; assay type: cell-based; details: 30 hours, measurement group/control group, DMSO control = 100
Method: HepG2 was cultured to 80% to 90% confluence in a 100 mm/Collagen-Coated Dish (trade name, manufactured by Iwaki Glass Works, Co.). The medium was removed from the above-noted dish with a pipette and then HepG2 was washed with 2 mL of 1×PBS. Then, 2 mL of trypsin-EDTA was added, the above-noted dish was rotated slowly so that the trypsin-EDTA spread over the entire cells, this trypsin-EDTA was removed with a pipette, and the dish was allowed to stand still for 15 minutes in a CO2 incubator (37° C., 5%). To this dish, 12 mL of a growth medium was added, followed by mixing by pipetting, and 1 mL of this mixture solution was dispensed in each well of Collagen-Coated Microplates 12Well/Flat Bottom (trade name, manufactured by Iwaki Glass Works, Co.). After the cells were checked using a microscope, the wells were cultured in a CO2 incubator (37° C., 5%) for one to two days. After checking that 80% to 90% confluence was achieved using the microscope, a medium replacement was carried out by removing the medium and adding 800 μL of a medium containing bergamottin. […] Using this collected medium, the number of living cells were counted, and the Western blotting and the ELISA measurement were carried out similarly to the above. From the result of the ELISA, the ratio of the VLDL secretion amount between the measurement group and the non-treated control group (measurement group/control group) was calculated for each sample.
The measurement was made using CellTiter 96 Aqueous One Solution Cell Proliferation Assay (trade name, manufactured by Promega Corporation). […] 100 μL of this mixture solution was dispensed to each of three wells of ELISA PLATE 96well (trade name, manufactured by Iwaki Glass Works, Co.), and the absorbance at 490 nm was measured. The measurement was made using wallac ARVOsx (trade name, PerkinElmer Life Sciences, PerkinElmer, Inc.), and the mode of measurement was Absorbance (490 nm, 1.0 S). The ratio of the number of living cells between the measurement group and the non-treated control group (measurement group/control group) was calculated for each sample.

SMILES: CC(C)=CCC/C(C)=C/COc1c2ccoc2cc2oc(=O)ccc12 [Bergamottin, bergamottin]
- PPARγ ligand activity ([1]; 0.1 μM): 90 ± 5.7
- PPARγ ligand activity ([1]; 1.0 μM): 132 ± 12.0
- PPARγ ligand activity ([1]; 10 μM): 388 ± 41.4
- PPARγ ligand activity ([1]; 50 μM): 961 ± 72.1
- PPARγ ligand activity ([1]; 100 μM): 1032 ± 248.3
- PPARγ activity level compared with catechin ([1]; no catechin data shown): higher than that of catechin
- Number of living cells (%) ([2]; 10 μM): 99.6%
- Number of living cells (%) ([2]; 20 μM): 97.2%
- Number of living cells (%) ([2]; 50 μM): 99.8%
